Assay results from US10144944B2, “Methods of cell culture” (Momenta Pharmaceuticals, Inc., priority 2013, dated 2018).
Read-outs that look alike come from different tables or passages of the source.

How the values were obtained:
[1] = tested on: CHO cells genetically engineered to express the antibody; details: for Product titer: day-7 batch culture; for viable cell density (VCD): day 4
Experimental: (§1) The effect of putrescine on antibody glycoforms of a model antibody produced by CHO cells was analyzed. CHO cells genetically engineered to express the antibody were grown initially in base media (Power CHO2, Catalog #BE15-771, Lonza Inc., Allendale, N.J.). Cells were then inoculated (at 0.55×10^6 cells/mL) into a chemically defined medium containing 0.17 mg/L, 0.35 mg/L, or […] putrescine 2HCl and cultured as a batch culture in TPP tubespins for 7 days.
(§2) Cell viability was assessed on day 4 using a hemocytometer using cells stained with trypan blue. Titer was determined from the day-7 cultures by protein A affinity HPLC. Relative quantitation of each glycoform was performed on purified protein using Chip ToF. Chip ToF uses mass spectrometry to measure the extracted ion chromatogram (XIC) area for each species after chip-based enzymatic removal and purification of N-glycans, relative to the total XIC for detected species (see, e.g., mAb-Glyco Chip Kit, Agilent Technologies).

[2] = tested on: model antibody produced by CHO cells
Experimental: as §1, §2

[3] = with increasing levels of putrescine, FIG. 4
[4] = with increasing putrescine, FIG. 3

Question: Which results are given for NCCCCN [putrescine]?
Answer: Product titer ([1]; 0.17 mg/L putrescine in medium): 40 mg/L; viable cell density (VCD) ([1]; 0.17 mg/L putrescine): 1.5×10^6 cells/mL; Product titer ([1]; 0.35 mg/L putrescine in medium): 58 mg/L; viable cell density (VCD) ([1]; 0.35 mg/L putrescine): 1.8×10^6 cells/mL; Product titer ([1]; 0.52 mg/L putrescine in medium): 73 mg/L; viable cell density (VCD) ([1]; 0.52 mg/L putrescine): 2.2×10^6 cells/mL; relative change in G0F, G1F, and G2F ([2]; 0.52 mg/L putrescine compared to 0.17 mg/L putrescine, FIG. 3): about 10%; putrescine level above which effect on fucosylated glycans saturates ([2]; non-linear relationship, FIG. 2): above 0.35 mg/mL; fraction of fucosylated glycans ([2]; with increasing levels of putrescine (0.17-0.52 mg/L), FIG. 2): increased; high mannose glycans [2, 3]: reduced; level of sialylated glycans [2, 3]: increased; level of galactosylation ([2]; with increasing putrescine): increase; levels of G0F [2, 4]: reduced; levels of G1F [2, 4]: increased; levels of G2F [2, 4]: increased
